Source: patent US20260144796A1, “Compounds and Methods for Improving Health” (Acurx Pharmaceuticals, Inc., priority 2022, published 2026)
Values after ≈ are worked out from the molar mass of the structure shown. “Also recorded” adds a separate entry of the source. Like-named read-outs stand apart in the source and are kept apart here.

Tests used:
gut microbiome = test: Phase 1 healthy volunteer study, gut microbiome (metagenomics, qPCR); type: in vivo, human; conditions: for Proportion of isolated Firmicutes, Erysipelotrichaceae: baseline 2%; for Proportion of isolated Firmicutes, Other: baseline 4%; for Proportion of isolated Firmicutes, Lachnospiraceae: baseline 26%; for Proportion of isolated Firmicutes, Ruminococcaceae: baseline 68%
Clostridium butyricum = test: microbe, parasite or virus in culture; type: cell-based
Clostridium subterminale = test: MIC determination, stool Firmicute isolates; type: cell-based; conditions: N=1
Coprococcus sp = test: MIC determination, stool Firmicute isolates; type: cell-based; conditions: N=1
Blautia sp. = test: MIC determination, stool Firmicute isolates; type: cell-based; conditions: N=1
Description: (§1) Fecal samples homogenized in reduced PBS (0.1 g stool/ml PBS) and serially diluted and plated directly onto YCFA7 agar supplemented with 0.002 g/ml each of glucose, maltose and cellobiose in large (13.5 cm diameter) petri dishes. Isolated colonies were identified by PCR amplification of the full-length 16S rRNA gene (using 7F (5′-[…]-3′) forward primer and 1510R (5′-[…]-3′) reverse primer followed by Sanger sequencing. Full-length 16S rRNA gene sequence reads were aligned using CLC Genomics (Qiagen) using the Ribosomal Database Project (RDP) as reference to classify reads to Operational Taxonomic Units (OTUs). The full-length 16S rRNA gene sequence of each species-level OTU was compared to the Ribosomal Database Project (RDP) reference database to assign taxonomic designations to the genus level and a BLAST search performed to identify any candidate novel species.
(§2) Strains plated onto blood agar (Hardy Diagnostics) with a 24-hour incubation at 37° C. in an anaerobic environment (Coy vinyl anaerobic chamber). After incubation, 3-5 well-isolated colonies were suspended into 5 mL of BHI broth (Criterion Media). The cultures were incubated in an anaerobic chamber for 24 hours to achieve a 0.5 McFarland Standard. Brucella agar with 5% hemin (5 ug/mL) (Sigma), vitamin K (10 ug/mL), and defibrinated sheep blood (Northeast Lab Services). The supplemented brucella agar was then utilized for two-fold serial dilution to create plates with IBZ concentration of 0.5 to 16 μg/mL plates. Plates were allowed to dry in a sterile location. After drying, the plates were covered with foil to prevent any photo-damage to the hemin and placed in the anaerobic chamber for 1 hour to reduce the media. The broth culture was then spotted onto the plates and covered with foil. Plates were allowed to dry completely before inverting them for incubation for 48 hours. Plates were analyzed and MIC recorded.

Enterococcus avium = test: MIC determination, stool Firmicute isolates; type: cell-based
Description: as §1, §2

Enterococcus mundtii = test: MIC determination, stool Firmicute isolates; type: cell-based; conditions: N=1
Description: as §1, §2

[1] = test system: Erysipelatoclostridium ramosum; test: MIC determination, stool Firmicute isolates; type: cell-based; conditions: Thomasclavelia ramosa
Flavonifractor plautii = test: MIC determination, stool Firmicute isolates; type: cell-based; conditions: N=1
[2] = test system: representative Actinobacteria (Bifidobacteriaceae and Coriobacteriaceae); test: MIC, isolated gut microbiota species: Actinobacteria; type: cell-based; conditions: inactive
Protocol: as §2, with “Brucella agar with 5% hemin (5 ug/mL) (Sigma), vitamin K (10 ug/mL), and defibrinated sheep blood (Northeast Lab Services). The supplemented brucella agar was then utilized for two-fold serial dilution to create plates with IBZ concentration of 0.5 to 16 μg/mL plates.” left out

[3] = test system: C. difficile CD 630 and R20291 cell morphology; test: Morphology assessment by bright field microscopy; type: cell-based; conditions: sub-inhibitory to MIC, 24 hours, listed as IBZ
Protocol: Cultures were then incubated in an anaerobic chamber at 37° C. in for 24 hrs. Pre-cultures were diluted to approximately 10^6CFU/mL (1:100) in fresh BHI comprising 0.25×MIC (0.5 ug/mL) of the appropriate antibiotic. Following incubation for 24 hrs, EVOS imaging system (Thermofisher) was used to take bright field pictures at 40× magnification.

[4] = test system: C. difficile CD 630 motility; test: Phenotypic motility assay; conditions: sub-inhibitory concentrations in semi-solid BHI agar
[5] = test system: C. difficile clinical isolates; conditions: Clostridioides difficile, 24 h, agar dilution
[6] = healthy volunteers, 450 mg twice daily 10 days, day 3
[7] = healthy volunteers, 450 mg twice daily 10 days, day 5
[8] = healthy volunteers, 450 mg twice daily 10 days, day 8
[9] = healthy volunteers, 450 mg twice daily 10 days, day 10
[10] = healthy volunteers, 450 mg twice daily 10 days, day 12

SMILES: O=c1[nH]c(NCc2ccc(Cl)c(Cl)c2)nc2ncn(CCN3CCOCC3)c12 [Ibezapolstat, 2-((3,4-dichlorobenzyl)amino)-7-(2-morpholinoethyl)-1,7-dihydro-6H-purin-6-one]
- amount of C. coccoides (Clostridium cluster XIVa), qPCR (gut microbiome; healthy volunteers, 450 mg twice a day, over 12 days): increased
- Proportion of isolated Firmicutes, Streptococcaceae (gut microbiome; [6]): 27%
- Proportion of isolated Firmicutes, Veillonellaceae (gut microbiome; [6]): 3%
- Proportion of isolated Firmicutes, Erysipelotrichaceae (gut microbiome; [6]): 4%
- Proportion of isolated Firmicutes, Other (gut microbiome; [6]): 6%
- Proportion of isolated Firmicutes, Lachnospiraceae (gut microbiome; [6]): 23%
- Proportion of isolated Firmicutes, Ruminococcaceae (gut microbiome; [6]): 37%
- Proportion of isolated Firmicutes, Streptococcaceae (gut microbiome; [7]): 43%
- Proportion of isolated Firmicutes, Erysipelotrichaceae (gut microbiome; [7]): 7%
- Proportion of isolated Firmicutes, Other (gut microbiome; [7]): 9%
- Proportion of isolated Firmicutes, Lachnospiraceae (gut microbiome; [7]): 21%
- Proportion of isolated Firmicutes, Ruminococcaceae (gut microbiome; [7]): 20%
- Proportion of isolated Firmicutes, Lactobacilloae (gut microbiome; [8]): 12%
- Proportion of isolated Firmicutes, Streptococcaceae (gut microbiome; [8]): 49%
- Proportion of isolated Firmicutes, Erysipelotrichaceae (gut microbiome; [8]): 7%
- Proportion of isolated Firmicutes, Other (gut microbiome; [8]): 9%
- Proportion of isolated Firmicutes, Lachnospiraceae (gut microbiome; [8]): 16%
- Proportion of isolated Firmicutes, Ruminococcaceae (gut microbiome; [8]): 7%
- Proportion of isolated Firmicutes, Lactobacilloae (gut microbiome; [9]): 5%
- Proportion of isolated Firmicutes, Streptococcaceae (gut microbiome; [9]): 41%
- Proportion of isolated Firmicutes, Erysipelotrichaceae (gut microbiome; [9]): 18%
- Proportion of isolated Firmicutes, Other (gut microbiome; [9]): 9%
- Proportion of isolated Firmicutes, Lachnospiraceae (gut microbiome; [9]): 24%
- Proportion of isolated Firmicutes, Ruminococcaceae (gut microbiome; [9]): 3%
- Proportion of isolated Firmicutes, Lactobacilloae (gut microbiome; [10]): 6%
- Proportion of isolated Firmicutes, Streptococcaceae (gut microbiome; [10]): 14%
- Proportion of isolated Firmicutes, Erysipelotrichaceae (gut microbiome; [10]): 25%
- Proportion of isolated Firmicutes, Other (gut microbiome; [10]): 5%
- Proportion of isolated Firmicutes, Lachnospiraceae (gut microbiome; [10]): 47%
- Proportion of isolated Firmicutes, Ruminococcaceae (gut microbiome; [10]): 4%
- Actinobacteria abundance after starting treatment (gut microbiome; healthy volunteers, primarily Bifidobacteriales or Coriobacteriales, persisted for the entire dosing period): increased in abundance
- microbiome profile of treated subjects (gut microbiome; phase 1 healthy volunteer study, treatment over 10 days, shotgun metagenomic sequencing): larger proportion of Actinobacteria and Firmicute Phylum
- MIC50 (Clostridium butyricum): 12.5 µg/mL (≈ 29.5 µM)
- MIC (Clostridium butyricum; read-out: MIC Max, Clostridium butyricum, N=5): 100 µg/mL (≈ 236 µM)
- MIC (Clostridium butyricum; read-out: MIC Min, Clostridium butyricum, N=5): 1.5 µg/mL (≈ 3.54 µM)
- MIC (Clostridium butyricum; strain C. butyricum 1007): > 100 µg/mL
- MIC (Clostridium butyricum; strain C. butyricum 1008): 1.5 µg/mL (≈ 3.54 µM)
- MIC50 (Clostridium subterminale): 1 µg/mL (≈ 2.36 µM)
- MIC50 (Coprococcus sp): 25 µg/mL (≈ 59.1 µM)
- MIC50 (Blautia sp.): 12.5 µg/mL (≈ 29.5 µM)
- MIC50 (Enterococcus avium; N=2): 12.5 µg/mL (≈ 29.5 µM)
- MIC (Enterococcus avium; N=2, read-out: MIC Max): 12.5 µg/mL (≈ 29.5 µM)
- MIC (Enterococcus avium; N=2, read-out: MIC Min): 12.5 µg/mL (≈ 29.5 µM)
- MIC50 (Enterococcus mundtii): 12.5 µg/mL (≈ 29.5 µM)
- MIC50 ([1]; N=5): 6.25 µg/mL (≈ 14.8 µM)
- MIC ([1]; N=5, read-out: MIC Max): 100 µg/mL (≈ 236 µM)
- MIC ([1]; N=5, read-out: MIC Min): 3.12 µg/mL (≈ 7.38 µM)
- MIC50 (Flavonifractor plautii): 25 µg/mL (≈ 59.1 µM)
- MIC [2]: > 64 µg/mL
- cell morphology [3]: elongated cell phenotype; also recorded: dose-dependent effect on C. difficile cell length
- motility of CD 630 [4]: attenuated motility
- motility of CD 630 ([4]; listed as IBZ): less motile
- MIC ([5]; C. difficile clinical isolate MT 4802): 4 µg/mL (≈ 9.45 µM)
- MIC ([5]; C. difficile clinical isolate MT 5071): 8 µg/mL (≈ 18.9 µM)
- MIC ([5]; C. difficile clinical isolate MT 5342): 4 µg/mL (≈ 9.45 µM)
- MIC ([5]; C. difficile clinical isolate MT 5364): 4 µg/mL (≈ 9.45 µM)
- MIC ([5]; C. difficile clinical isolate MT 5382): 8 µg/mL (≈ 18.9 µM)
- MIC ([5]; C. difficile clinical isolate MT 5426): 8 µg/mL (≈ 18.9 µM)
- MIC ([5]; C. difficile clinical isolate MT 5493): 4 µg/mL (≈ 9.45 µM)
- MIC ([5]; C. difficile clinical isolate MT 5515): 8 µg/mL (≈ 18.9 µM)
- MIC ([5]; C. difficile clinical isolate MT 5529): 4 µg/mL (≈ 9.45 µM)
- MIC ([5]; C. difficile clinical isolate MT 5536): 8 µg/mL (≈ 18.9 µM)
- MIC ([5]; C. difficile clinical isolate SH 1132): 8 µg/mL (≈ 18.9 µM)
